Source: US8420657B2 (Novartis AG, priority 2008, dated 2013)

System: JAK2-dependent nuclear translocation of STAT5-GFP in U-2 OS osteosarcoma cells
Assay: STAT5 nuclear translocation assay (Cellomics), rhEpo stimulated U-2 OS STAT5-GFP cells
Assay type: cell-based
Details: Homo sapiens, U2OS; STAT5 translocation pathway
Summary of the method: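 U-2 OS cells stably expressing STAT5a-GFP and EpoR pre-treated with compound (final 10 μM to 0.003 μM, 0.1% DMSO) for 30 min at 37° C., then stimulated 1 h with 5 U/ml rhEpo. Nuclear-cytoplasmic GFP differential quantified by automated imaging (≥1000 cells/well, Hoechst nuclear mask). IC50 from % translocation normalized to untreated and DMSO-stimulated controls.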

Compound	IC50 [nM]
Cc1ccc(Nc2ncc3ccn(-c4cc(F)c(CN5CCOCC5)c(F)c4)c3n2)cc1CN1CCNCC1 [Example 332, [7-(3,5-Difluoro-4-morpholin-4-ylmethyl-phenyl)-7H-pyrrolo[2,3-d]pyrimidin-2-yl]-(4-methyl-3-piperazin-1-ylmethyl-phenyl)-amine]	73
Fc1cc(-n2ccc3cnc(Nc4ccnc(CN5CCNCC5)c4)nc32)cc(F)c1CN1CCOCC1 [Example 372, [7-(3,5-Difluoro-4-morpholin-4-ylmethyl-phenyl)-7H-pyrrolo[2,3-d]pyrimidin-2-yl]-(2-piperazin-1-ylmethyl-pyridin-4-yl)-amine]	57
C[C@@H]1CN(c2ccc(Nc3ncc4ccn(-c5ccc(NS(C)(=O)=O)cc5)c4n3)cn2)C[C@H](C)N1 [Example 380, N-(4-{2-[6-(cis-3,5-Dimethyl-piperazin-1-yl)-pyridin-3-ylamino]-pyrrolo[2,3-d]pyrimidin-7-yl}-phenyl)-methanesulfonamide]	46
Cc1ccc(Nc2ncc3ccn(-c4cc(F)c(CN5CCNC(=O)C5)c(F)c4)c3n2)cc1CN1CCNCC1 [Example 382, 4-{2,6-Difluoro-4-[2-(4-methyl-3-piperazin-1-ylmethyl-phenylamino)-pyrrolo[2,3-d]pyrimidin-7-yl]-benzyl}-piperazin-2-one]	121
CN1CCN(c2ccc(Nc3ncc4ccn(-c5cc(F)c(CN6CCS(=O)(=O)CC6)c(F)c5)c4n3)nc2)CC1 [Example 440, {7-[4-(1,1-Dioxido-thiomorpholin-4-ylmethyl)-3,5-difluoro-phenyl]-7H-pyrrolo[2,3-d]pyrimidin-2-yl}-[5-(4-methyl-piperazin-1-yl)-pyridin-2-yl]-amine]	61
COCc1c(F)cc(-n2ccc3cnc(Nc4ccc(N5CCN(C)CC5)nc4)nc32)cc1F [Example 446, [7-(3,5-Difluoro-4-methoxymethyl-phenyl)-7H-pyrrolo[2,3-d]pyrimidin-2-yl]-[6-(4-methyl-piperazin-1-yl)-pyridin-3-yl]-amine]	1.3
CC1(C)NCCN(c2cc(Nc3ncc4ccn(-c5cc(F)c(CN6CCOCC6)c(F)c5)c4n3)ccn2)C1=O [Example 503, 1-{4-[7-(3,5-Difluoro-4-morpholin-4-ylmethyl-phenyl)-7H-pyrrolo[2,3-d]pyrimidin-2-ylamino]-pyridin-2-yl}-3,3-dimethyl-piperazin-2-one]	27.5

System: JAK1/JAK2-dependent nuclear translocation of STAT1-GFP in HT1080 fibrosarcoma cells
Assay: STAT1 nuclear translocation assay (Cellomics), IFN-γ stimulated HT1080 STAT1-GFP cells
Assay type: cell-based
Details: Homo sapiens, HT-1080, STAT1 translocation pathway
Summary of the method: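 IC50 derived from percent nuclear STAT1-GFP translocation, computed from nuclear minus cytoplasmic GFP intensity against untreated baseline and DMSO-stimulated control. Stable HT1080 STAT1-GFP cells received compound (0.003–10 μM, 0.1% DMSO) 30 min ahead of a 2 h 100 ng/ml IFN-γ stimulus, then fixation and Hoechst nuclear masking.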

Compound	IC50 [nM]
CC(C)Oc1ccc(Nc2ncc3ccn(-c4ccc(C#N)cc4)c3n2)cc1 [Example 96, 4-[2-(4-Isopropoxy-phenylamino)-pyrrolo[2,3-d]pyrimidin-7-yl]-benzonitrile]	26200
COc1cc(Nc2ncc3ccn(-c4ccc(C(=O)N5CCOCC5)c(F)c4)c3n2)ccc1F [Example 151, {2-Fluoro-4-[2-(4-fluoro-3-methoxy-phenylamino)-pyrrolo[2,3-d]pyrimidin-7-yl]-phenyl}-morpholin-4-yl-methanone]	228
COCc1ccc(Nc2ncc3ccn(-c4cc(F)c(CN5CCS(=O)(=O)CC5)c(F)c4)c3n2)cc1 [Example 184, {7-[4-(1,1-Dioxido-thiomorpholin-4-ylmethyl)-3,5-difluoro-phenyl]-7H-pyrrolo[2,3-d]pyrimidin-2-yl}-(4-methoxymethyl-phenyl)-amine]	35
CN1CCN(C(=O)c2cccc(Nc3ncc4ccn(-c5cc(F)c(CN6CCOCC6)c(F)c5)c4n3)c2)CC1 [Example 203, {3-[7-(3,5-Difluoro-4-morpholin-4-ylmethyl-phenyl)-7H-pyrrolo[2,3-d]pyrimidin-2-ylamino]-phenyl}-(4-methyl-piperazin-1-yl)-methanone]	412
Cc1ccc(Nc2ncc3ccn(-c4ccc(C(=O)N5CCOCC5)cc4)c3n2)cn1 [Example 238, {4-[2-(6-Methyl-pyridin-3-ylamino)-pyrrolo[2,3-d]pyrimidin-7-yl]-phenyl}-morpholin-4-yl-methanone]	785
Cc1ccc(Nc2ncc3ccn(-c4ccc(C(=O)N5CCN(CCO)CC5)cc4)c3n2)cc1C [Example 300, {4-[2-(3,4-Dimethyl-phenylamino)-pyrrolo[2,3-d]pyrimidin-7-yl]-phenyl}-[4-(2-hydroxy-ethyl)-piperazin-1-yl]-methanone]	2030
Cn1cc(Nc2ncc3ccn(-c4ccc(CC(=O)N5CCOCC5)cc4)c3n2)cn1 [Example 301, 2-{4-[2-(1-Methyl-1H-pyrazol-4-ylamino)-pyrrolo[2,3-d]pyrimidin-7-yl]-phenyl}-1-morpholin-4-yl-ethanone]	50
Cc1cc(Nc2ncc3ccn(-c4ccc(C(=O)N5CCOCC5)c(F)c4)c3n2)nn1C [Example 311, {4-[2-(1,5-Dimethyl-1H-pyrazol-3-ylamino)-pyrrolo[2,3-d]pyrimidin-7-yl]-2-fluoro-phenyl}-morpholin-4-yl-methanone]	1400
Cc1ccc(Nc2ncc3ccn(-c4cc(F)c(CN5CCOCC5)c(F)c4)c3n2)cc1CN1CCNCC1 [Example 332, [7-(3,5-Difluoro-4-morpholin-4-ylmethyl-phenyl)-7H-pyrrolo[2,3-d]pyrimidin-2-yl]-(4-methyl-3-piperazin-1-ylmethyl-phenyl)-amine]	375
COCc1c(F)cc(-n2ccc3cnc(Nc4ccc(N5CCN(C)CC5)nc4)nc32)cc1F [Example 446, [7-(3,5-Difluoro-4-methoxymethyl-phenyl)-7H-pyrrolo[2,3-d]pyrimidin-2-yl]-[6-(4-methyl-piperazin-1-yl)-pyridin-3-yl]-amine]	50
